Target: T1, Serine/threonine-protein kinase D1 (Homo sapiens, UniProt Q15139)
T1 sequence (Q15139 whole entry): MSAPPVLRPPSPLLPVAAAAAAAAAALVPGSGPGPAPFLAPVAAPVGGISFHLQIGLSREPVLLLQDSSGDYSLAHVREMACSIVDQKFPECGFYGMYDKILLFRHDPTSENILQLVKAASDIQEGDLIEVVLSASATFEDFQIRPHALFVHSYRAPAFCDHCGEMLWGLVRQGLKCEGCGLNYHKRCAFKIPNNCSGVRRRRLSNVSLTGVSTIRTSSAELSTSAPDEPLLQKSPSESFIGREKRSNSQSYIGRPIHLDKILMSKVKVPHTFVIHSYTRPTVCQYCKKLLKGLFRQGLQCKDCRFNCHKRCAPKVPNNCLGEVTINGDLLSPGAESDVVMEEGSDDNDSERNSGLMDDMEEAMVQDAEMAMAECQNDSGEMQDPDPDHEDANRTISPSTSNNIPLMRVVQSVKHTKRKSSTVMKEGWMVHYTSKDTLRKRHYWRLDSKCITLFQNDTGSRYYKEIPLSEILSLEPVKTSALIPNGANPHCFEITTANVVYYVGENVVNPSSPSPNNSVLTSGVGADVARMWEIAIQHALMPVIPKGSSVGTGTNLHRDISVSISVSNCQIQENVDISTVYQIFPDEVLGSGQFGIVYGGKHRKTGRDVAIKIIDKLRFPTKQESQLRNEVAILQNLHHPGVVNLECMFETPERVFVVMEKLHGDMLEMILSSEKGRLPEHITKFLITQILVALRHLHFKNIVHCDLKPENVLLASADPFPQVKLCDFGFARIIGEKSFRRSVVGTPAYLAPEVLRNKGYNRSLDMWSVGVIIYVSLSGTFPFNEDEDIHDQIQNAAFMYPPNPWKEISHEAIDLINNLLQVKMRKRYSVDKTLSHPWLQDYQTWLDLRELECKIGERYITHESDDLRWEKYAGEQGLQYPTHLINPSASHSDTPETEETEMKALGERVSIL
Test: fluorescence polarization artefacts, biochemical, 57K campaign, artefact control, dose response (AID 1342)

IC50 [µM]	SMILES
> 50	CSc1ccccc1C(=O)NCc1ccc(F)cc1
> 50	O=C(CSc1ccc2nnc(-c3cccnc3)n2n1)c1ccccc1 [1-phenyl-2-[[3-(3-pyridinyl)-[1,2,4]triazolo[4,3-b]pyridazin-6-yl]thio]ethanone]
> 50	CCOC(=O)c1sc(=NC(=O)CCS(=O)(=O)c2ccccc2)n(C)c1C [2-[3-(benzenesulfonyl)-1-oxopropyl]imino-3,4-dimethyl-5-thiazolecarboxylic acid ethyl ester]
> 50	CCCc1cc(=O)[nH]c(SCCCCN2C(=O)c3ccccc3C2=O)n1 [2-[4-[(4-oxidanylidene-6-propyl-1H-pyrimidin-2-yl)sulfanyl]butyl]isoindole-1,3-dione]
> 50	Cc1c(C#N)c(N)nc(Cl)c1C#N [2-amino-6-chloro-4-methyl-3,5-pyridinedicarbonitrile]
16.7	CC(N=Nc1ncc(Cl)cc1Cl)c1ccccn1 (stereo not drawn) [3,5-dichloro-N-(1-pyridin-2-ylethylideneamino)pyridin-2-amine]
> 50	O=C1CSCN1c1cc(Cl)ccc1Cl [3-(2,5-dichlorophenyl)-1,3-thiazolan-4-one]
> 50	O=C(O)c1cc(C(=O)C2CCCCC2)c[nH]1 [4-(cyclohexylcarbonyl)-1H-pyrrole-2-carboxylic acid]
> 50	CC1Cc2ccccc2N1c1ncnc(N)c1[N+](=O)[O-] (stereo not drawn) [6-(2-methyl-2,3-dihydro-1H-indol-1-yl)-5-nitro-4-pyrimidinamine]
> 50	O=[N+]([O-])c1ccc(Nc2c3ccccc3nc3ccccc23)cc1 [MLS000723809]
> 50	COc1ccc(Cn2c(=O)[nH]c3cc(C(=O)NC4CCCC4)ccc3c2=O)cc1 [MLS000730065]
> 50	Cc1cc(NC(=O)CCC(=O)N(Cc2ccco2)C(C(=O)NCC2CCCO2)c2ccncc2)no1 (stereo not drawn) [N'-(furan-2-ylmethyl)-N-(5-methyl-1,2-oxazol-3-yl)-N'-[2-oxidanylidene-2-(oxolan-2-ylmethylamino)-1-pyridin-4-yl-ethyl]butanediamide]
> 50	O=C(CSc1ccncc1)Nc1ccc2ccccc2c1 [N-naphthalen-2-yl-2-pyridin-4-ylsulfanylacetamide]
> 50	O=C(NNC1=Nc2cccc3cccc1c23)c1ccc(Br)cc1 [SMR000260645]
> 50	O=C(Nc1ccccc1C(=O)N1CCCC1)C1COc2ccccc2O1 (stereo not drawn) [SMR000287780]
> 50	COC(=O)c1c(NC(=O)C2C3CCC(C3)C2C(=O)O)sc2c1CCCCC2 (stereo not drawn) [SMR000298221]
> 50	COc1ccc(CNC(=O)C2Cc3ccccc3CN2C(=O)c2ccco2)cc1 (stereo not drawn) [SMR000343177]
> 50	Cn1cccc1C(=O)NC(=O)COC(=O)c1cc(S(=O)(=O)N2CCCCC2)ccc1Cl [[2-[(1-methylpyrrol-2-yl)carbonylamino]-2-oxidanylidene-ethyl] 2-chloranyl-5-piperidin-1-ylsulfonyl-benzoate]

From BindingDB's records for doi:10.7270/Q2ZG6QNM (University of Pittsburgh, 2008)
